Measurements as given in patent US5137900A, “Therapeutic virginiamycin M1 analogs” (Merck & Co., Inc., priority 1991, dated 1992).

Tests used:
[1] = biological target: T1, Pancreatic CCK receptor (Rattus norvegicus, UniProt P30551); test: Pancreatic cholecystokinin receptor binding assay (125I-CCK-8); settings: rat pancreas membranes, 37° C., 30 minutes
T1 construct: Pancreatic receptor membranes were prepared; from tissue; host or cells: rat pancreas membranes
T1 sequence (P30551 1-444): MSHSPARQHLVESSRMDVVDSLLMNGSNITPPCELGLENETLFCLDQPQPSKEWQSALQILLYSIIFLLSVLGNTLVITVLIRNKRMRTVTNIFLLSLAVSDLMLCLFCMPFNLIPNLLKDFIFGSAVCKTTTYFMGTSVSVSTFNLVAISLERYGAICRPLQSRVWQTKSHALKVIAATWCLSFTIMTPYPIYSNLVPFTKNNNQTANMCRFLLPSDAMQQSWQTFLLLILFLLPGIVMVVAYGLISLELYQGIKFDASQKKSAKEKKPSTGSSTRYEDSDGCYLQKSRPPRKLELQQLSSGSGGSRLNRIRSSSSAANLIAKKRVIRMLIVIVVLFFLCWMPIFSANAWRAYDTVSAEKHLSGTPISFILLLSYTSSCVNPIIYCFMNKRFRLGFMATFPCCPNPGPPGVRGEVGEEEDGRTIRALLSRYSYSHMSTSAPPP
Protocol: Radiolabeled CCK-8 was purchased from New England Nuclear as ^125 I-CCK-8 Receptor binding was performed according to Innis and Snyder Proc. Natl. Acad. Sci., 77, 6917 (1980), with the minor modification of adding the additional protease inhibitors, phenylmethane sulfonyl fluoride (PMSF) and o-phenanthroline, which have no effect on the ^125 I-CCK receptor binding assay. All assays were performed in triplicate. Pancreatic receptor membranes were prepared by homogenzing a gram of fresh rat pancreas tissue in 30 ml TRIS-HCl (50 mM), pH 7.7 using a Brinkman polytron PT10 (Brinkman). The homogenate was washed twice and collected by centrifugation at 48,000×g at 4° C. for 10 minutes. The membranes were resuspended in assay buffer consisting of 5 mM dithiothieitol, 0.1 mM bacitiacin, 5 mM MgCl2.H2 O, 0.2% heat denatured BSA, 1.2 mM PMSF and 0.5 mM O-phenanthroline at a concentration of 100 ml per gram of pancreas. […] The reaction mixtures were mixed briefly and placed in a 37° C. water bath with gentle shaking for 30 minutes. The reaction mixtures were then diluted with 4 ml of ice-cold TRIS buffer, pH 7.7, containing 1 mg/ml bovine serum albumin and immediately filtered in Watman G F/B filters. The filters were washed with 3×4 ml of the same buffer and the radioactivity associated with the filters was counted in a Beckman Gamma 5500 counter. Broths were prepared by adding two volumes of acetone to original broth; supernatants were freeze dried after centrifugation at 1500 g for 10 minutes. The dried samples were then brought up in methanol/H2 O (1:1) and ready for assay.

[2] = cited from earlier work
[3] = test system: gastric acid secretion; settings: cited from earlier work

Compound | IC50 [1] [µM] | other results
CC1=C\C=C\C(=O)Cc2nc(co2)C(=O)N2CCC=C2C(=O)O[C@H](C(C)C)[C@H](C)/C=C/C(=O)NC\C=C\1 [Compound III] | > 10 | 
CC1=C\C=C\[C@H](O)Cc2nc(co2)C(=O)N2CCC=C2C(=O)O[C@H](C(C)C)[C@H](C)/C=C/C(=O)NC\C=C\1 [Compound II] | > 10 | 
CC1=C\C=C\[C@@H](O)Cc2nc(co2)C(=O)N2CCC=C2C(=O)O[C@H](C(C)C)[C@H](C)/C=C/C(=O)NC\C=C\1 [Compound I] | > 10 | 
CC1=C\[C@@H](O)CC(=O)Cc2nc(co2)C(=O)N2CCC=C2C(=O)O[C@H](C(C)C)[C@H](C)/C=C/C(=O)NC\C=C\1 [Virginiamycin M1] | > 100 | 
C-terminal octapeptide: C-terminal octapeptide of CCK |  | efficacy relative to CCK-33 ([2]; compared with CCK-33): same efficacy; potency relative to CCK-33 ([2]; more potent than CCK-33): approximately ten
Gastrin-17 |  | potency relative to Gastrin-13 ([3]; more potent than Gastrin-13, gastric acid secretion): 2.5 times; potency relative to Gastrin-34 ([3]; more potent than Gastrin-34, gastric acid secretion): 5 times
